What was measured:
[1] = tested on: velvetleaf; experiment: Test A pre-/postemergence herbicide test; assay type: in vivo, Abutilon theophrasti
Procedure, shortened: (§1)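 Visual injury ratings, 0 = no effect, 100 = complete control, taken ~10 days after treatment against untreated greenhouse controls. Preemergence: directed soil spray onto seeded loam/sand pots. Postemergence: spray onto plants at one- to two-leaf stage, 2–10 cm tall.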

[2] = tested on: pigweed; experiment: Test A pre-/postemergence herbicide test; assay type: in vivo, Amaranthus retroflexus
Procedure, shortened: as §1

[3] = tested on: rice; experiment: Test B flooded paddy test; assay type: in vivo, Oryza sativa; settings: 250 g ai/ha, Flood; scale of 0 to 100 where 0 is no effect and 100 is complete control
Experimental: (§2) Plant species in the flooded paddy test selected from rice (Oryza sativa), sedge, umbrella (small-flower umbrella sedge, Cyperus difformis), ducksalad (Heteranthera limosa), and barnyardgrass (Echinochloa crus-galli) were grown to the 2-leaf stage for testing. At time of treatment, test pots were flooded to 3 cm above the soil surface, treated by application of test compounds directly to the paddy water, and then maintained at that water depth for the duration of the test. Treated plants and controls were maintained in a greenhouse for 13 to 15 days, after which time all species were compared to controls and visually evaluated. Plant response ratings, summarized in Table B, are based on a scale of 0 to 100 where 0 is no effect and 100 is complete control. A dash (-) response means no test result.

[4] = tested on: crabgrass, large; experiment: Test A pre-/postemergence herbicide test; assay type: in vivo, Digitaria sanguinalis
Procedure, shortened: as §1

[5] = tested on: morningglory; experiment: Test A pre-/postemergence herbicide test; assay type: in vivo, Ipomoea spp.
Procedure, shortened: as §1

[6] = tested on: giant foxtail; experiment: Test A pre-/postemergence herbicide test; assay type: in vivo, Setaria faberii
Procedure, shortened: as §1

[7] = tested on: wheat; experiment: Test A pre-/postemergence herbicide test; assay type: in vivo, Triticum aestivum
Procedure, shortened: as §1

[8] = tested on: ducksalad; experiment: Test B flooded paddy test; assay type: in vivo, Heteranthera limosa; settings: 250 g ai/ha, Flood; scale of 0 to 100 where 0 is no effect and 100 is complete control
Experimental: as §2

[9] = tested on: barnyardgrass; experiment: Test A pre-/postemergence herbicide test; assay type: in vivo, Echinochloa crus-galli
Procedure, shortened: as §1

[10] = tested on: corn; experiment: Test A pre-/postemergence herbicide test; assay type: in vivo, Zea mays
Procedure, shortened: as §1

[11] = tested on: barnyardgrass; experiment: Test B flooded paddy test; assay type: in vivo, Echinochloa crus-galli; settings: 250 g ai/ha, Flood; scale of 0 to 100 where 0 is no effect and 100 is complete control
Experimental: as §2

[12] = tested on: sedge, umbrella; experiment: Test B flooded paddy test; assay type: in vivo, Cyperus difformis; settings: 250 g ai/ha, Flood; scale of 0 to 100 where 0 is no effect and 100 is complete control
Experimental: as §2

[13] = Postemergence, 1000 g ai/ha, 0 to 100 scale (0 no effect, 100 complete control)
[14] = Preemergence, 1000 g ai/ha, visual rating on 0 to 100 scale (0 no effect, 100 complete control), approx. 10 days
[15] = Postemergence, 125 g ai/ha, 0 to 100 scale, 0 no effect, 100 complete control
[16] = Postemergence, 500 g ai/ha, 0 to 100 scale (0 no effect, 100 complete control)
[17] = Preemergence, 125 g ai/ha, visual rating on 0 to 100 scale (0 no effect, 100 complete control)
[18] = preemergence, 500 g ai/ha, 0 to 100 scale

O=C1NCC(c2ccc(F)c(F)c2)C1C(=O)Nc1ccccc1 (racemic) [Compound 30]
Plant response rating, Velvetleaf [1, 13]: 0
Plant response rating, Velvetleaf [1, 14]: 0
Plant response rating, Pigweed [2, 13]: 0
Plant response rating, Pigweed [2, 14]: 0
Plant response rating, Rice [3]: 0
Plant response rating, Crabgrass, Large [4, 13]: 80
Plant response rating, Crabgrass, Large [4, 14]: 90
Plant response rating, Morningglory [5, 13]: 0
Plant response rating, Morningglory [5, 14]: 0
Plant response rating, Foxtail, Giant [6, 13]: 80
Plant response rating, Foxtail, Giant [6, 14]: 90
Plant response rating, Wheat [7, 13]: 0
Plant response rating, Wheat [7, 14]: 0
Plant response rating, Ducksalad [8]: 0
Plant response rating, Barnyardgrass [9, 13]: 90
Plant response rating, Barnyardgrass [9, 14]: 90
Plant response rating, Corn [10, 13]: 0
Plant response rating, Corn [10, 14]: 0
Plant response rating, Barnyardgrass [11]: 0
Plant response rating, Sedge, Umbrella [12]: 0

O=C1NCC(c2ccccc2)C1C(=O)Nc1ccccc1C(F)(F)F (racemic) [Compound 82]
Plant response rating, Velvetleaf [1, 15]: 0
Plant response rating, Velvetleaf [1, 16]: 20
Velvetleaf plant response rating [1, 17]: 0
Plant response rating, Velvetleaf [1, 18]: 0
Plant response rating, Pigweed [2, 15]: 0
Plant response rating, Pigweed [2, 16]: 0
Pigweed plant response rating [2, 17]: 0
Plant response rating, Pigweed [2, 18]: 0
Plant response rating, Crabgrass, Large [4, 15]: 50
Plant response rating, Crabgrass, Large [4, 16]: 70
Crabgrass, Large plant response rating [4, 17]: 80
Plant response rating, Crabgrass, Large [4, 18]: 90
Plant response rating, Morningglory [5, 15]: 0
Plant response rating, Morningglory [5, 16]: 10
Plant response rating, Morningglory [5, 18]: 0
Plant response rating, Foxtail, Giant [6, 15]: 0
Plant response rating, Foxtail, Giant [6, 16]: 70
Foxtail, Giant plant response rating [6, 17]: 20
Plant response rating, Foxtail, Giant [6, 18]: 70
Plant response rating, Wheat [7, 15]: 0
Plant response rating, Wheat [7, 16]: 10
Wheat plant response rating [7, 17]: 0
Plant response rating, Wheat [7, 18]: 0
Plant response rating, Ducksalad [8]: 70
Plant response rating, Barnyardgrass [9, 15]: 0
Plant response rating, Barnyardgrass [9, 16]: 50
Barnyardgrass plant response rating [9, 17]: 0
Plant response rating, Barnyardgrass ([9]; preemergence, 500 g ai/ha, 0 to 100 scale (0 no effect, 100 complete control)): 50
Plant response rating, Corn [10, 15]: 0
Plant response rating, Corn [10, 16]: 0
Corn plant response rating [10, 17]: 0
Plant response rating, Corn [10, 18]: 0
Plant response rating, Barnyardgrass [11]: 0
Plant response rating, Sedge, Umbrella [12]: 80
